This note sets out measurements from patent US20190136188A1, “4HPR AND ITS USE IN THE CULTURING OF HEMATOPOIETIC STEM CELLS” (UNIVERSITY HEALTH NETWORK, priority 2016, published 2019).

SMILES strings stand for the structures.

In assay [1] the test system is long-term repopulating cell (LTRC) in NSG mice. The experiment in a line: Serial (secondary) transplantation limiting dilution analysis, LTRC frequency. In kind it is in vivo. The source says:
(A) Experimental scheme (B) Representative FACS analysis data of in vitro culture for 16 HSC dose time course (n=3). The number of (C) viable cells, (D) CD15+ myeloid cells, (E) GlyA+ erythroid cells, and (F) CD34+ primitive cells measured for the 16 LTRC dose with HTS flow cytometry analysis at day 8 post-treatment for vehicle control or 4HPR prior to xenotransplantation (n=5 biological replicates, 4 in technical triplicate, marked with different symbols). (G) Human CD45+ engraftment at 16 weeks post transplant in injected femur (n=4, 5 mice/biological experiment). Lineage analysis of control or 4HPR transplanted mice from FIG. 5G for (H) B lymphoid, (I) myeloid, (J) erythroid, and (K) primitive CD34+ at the 16 LTRC dose. (L) CD45+ cells were isolated from 5 biological experiments of the 16 LTRC dose primary mice and transplanted at limiting doses into secondary recipients for 16 weeks. Human CD45+ marking of >0.1% was considered positive for secondary engraftment. Limiting dilutation analysis was performed using ELDA software and the long-term repopulating cell (LTRC) frequency for each biological replicate plotted and the average LTRC frequency calculated.
(A) The number of cells following 8 days of ex vivo culture at the 16 LTRC dose grown as in FIG. 5A for the indicated drug treatments (n=2). […] (2 biological replicates) (E) CD45+ cells were isolated from 2 biological experiments of the 16 LTRC dose primary mice and transplanted at limiting doses into secondary recipients for 16 weeks. Human CD45+ marking of >0.01% was considered positive for secondary engraftment. Limiting dilutation analysis was performed using ELDA software and the long-term repopulating cell (LTRC) frequency for each biological replicate plotted and the average LTRC frequency calculated.
To determine if 4HPR preserves functional HSC in CB liquid culture, we devised an experimental protocol to test the effect of 4HPR treatment in short-term ex vivo expansion culture on repopulation in serial NSG xenotransplantation to functionally read out LT-HSC (FIG. 5A). […]

The target in a further assay is T1, DEGS1 (Homo sapiens, UniProt O15121).
T1 construct: endogenous in cells; host or cells: lineage-depleted human cord blood (lin- CB) cells
T1 sequence (O15121 1-323): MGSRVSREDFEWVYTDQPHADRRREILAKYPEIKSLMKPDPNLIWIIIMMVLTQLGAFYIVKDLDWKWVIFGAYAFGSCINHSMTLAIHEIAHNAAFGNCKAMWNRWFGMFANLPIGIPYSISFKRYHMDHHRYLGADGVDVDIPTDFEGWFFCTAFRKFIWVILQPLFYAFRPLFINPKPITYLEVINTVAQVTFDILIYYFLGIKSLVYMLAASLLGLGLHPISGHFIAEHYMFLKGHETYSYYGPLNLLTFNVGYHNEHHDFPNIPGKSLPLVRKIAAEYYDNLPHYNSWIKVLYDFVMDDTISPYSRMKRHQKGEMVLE
The experiment in a line: Lipid mass spectrometry (LC/MS) of sphingolipids, DEGS1 activity. It counts as cell-based.

Setting [2] is: lin-CB cells cultured 8 days, 2 uM 4HPR.

Excerpt for DEGS1: All experiments following are at this 4HPR concentration unless otherwise indicated. […] (C) LC/MS was used to profile the ceramide (Cer), dihydroceramide (dhCer), sphingosine (sph), dihydrosphingosine (dhSph), S1P and dihydro-S1P (dhS1P) levels in lin− CB cells cultured for 8 days with control or 4HPR (n=2).

For the compound `CC1=C(/C=C/C(C)=C/C=C/C(C)=C/C(=O)Nc2ccc(O)cc2)C(C)(C)CCC1` [4HPR, N-(4hydroxyphenyl)retinamide], the “frequency of LT-HSC” value in assay [1] (4HPR added to SR1+UM171 treatment compared to SR1+UM171 treatment alone) is recorded as “doubled”. The “average LTRC frequency” value in assay [1] (4HPR treated cells, through 32 weeks of xenotransplantation) came to 1e6 CD45+ cells. Further, the “increase in SRC over control treatment” value in assay [1] (through 32 weeks of xenotransplantation, n=5, p=0.02) turned out to be 3 fold. Besides, the “dhCer and dhSph levels” value at DEGS1 (8 day culture, alone or in combination with UM171 and SR1) is “increases dhCer and dhSph”. At DEGS1 (setting [2]), the “levels of the signaling lipid S1P” value is “not altered”, the “total ceramide compared to control” value is listed as “decrease total ceramide” and the “total dihydroceramide compared to control” value was “increase total dihydroceramide”.
